In data set [1] the target is T1, Oxysterols receptor LXR-alpha (Homo sapiens, UniProt Q13133).
T1 sequence (Q13133 whole entry): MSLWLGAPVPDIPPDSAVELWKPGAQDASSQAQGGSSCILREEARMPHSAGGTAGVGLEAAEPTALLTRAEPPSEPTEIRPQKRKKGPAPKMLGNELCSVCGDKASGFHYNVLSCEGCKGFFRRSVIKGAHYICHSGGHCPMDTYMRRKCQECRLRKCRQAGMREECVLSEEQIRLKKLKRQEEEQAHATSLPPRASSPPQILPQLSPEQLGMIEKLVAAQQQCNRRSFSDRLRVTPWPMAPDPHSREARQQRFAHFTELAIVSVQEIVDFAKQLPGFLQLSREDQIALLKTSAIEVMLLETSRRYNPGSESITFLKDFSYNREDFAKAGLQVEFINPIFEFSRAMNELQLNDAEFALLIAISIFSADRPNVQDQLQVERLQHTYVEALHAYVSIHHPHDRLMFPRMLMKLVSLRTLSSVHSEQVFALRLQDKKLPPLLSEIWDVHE
It counts as functional, cell-based, CHO.

Data set [2] addresses T2, Oxysterols receptor LXR-beta (Homo sapiens, UniProt P55055).
T2 sequence (P55055 whole entry): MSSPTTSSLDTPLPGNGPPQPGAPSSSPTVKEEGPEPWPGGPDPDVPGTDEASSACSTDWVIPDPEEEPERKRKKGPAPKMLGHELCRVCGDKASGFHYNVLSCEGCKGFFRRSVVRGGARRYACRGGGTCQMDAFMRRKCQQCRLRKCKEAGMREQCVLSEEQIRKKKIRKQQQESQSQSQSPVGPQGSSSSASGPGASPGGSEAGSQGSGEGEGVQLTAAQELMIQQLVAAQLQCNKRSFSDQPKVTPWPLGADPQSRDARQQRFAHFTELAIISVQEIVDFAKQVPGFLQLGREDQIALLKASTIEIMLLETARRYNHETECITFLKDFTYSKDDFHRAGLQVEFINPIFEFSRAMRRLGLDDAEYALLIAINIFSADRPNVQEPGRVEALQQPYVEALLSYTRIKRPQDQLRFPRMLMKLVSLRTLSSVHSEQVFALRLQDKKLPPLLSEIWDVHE
Format: functional, cell-based, CHO.

Data set [3] addresses T3, Peroxisome proliferator-activated receptor alpha (Homo sapiens, UniProt Q07869).
T3 sequence (Q07869 whole entry): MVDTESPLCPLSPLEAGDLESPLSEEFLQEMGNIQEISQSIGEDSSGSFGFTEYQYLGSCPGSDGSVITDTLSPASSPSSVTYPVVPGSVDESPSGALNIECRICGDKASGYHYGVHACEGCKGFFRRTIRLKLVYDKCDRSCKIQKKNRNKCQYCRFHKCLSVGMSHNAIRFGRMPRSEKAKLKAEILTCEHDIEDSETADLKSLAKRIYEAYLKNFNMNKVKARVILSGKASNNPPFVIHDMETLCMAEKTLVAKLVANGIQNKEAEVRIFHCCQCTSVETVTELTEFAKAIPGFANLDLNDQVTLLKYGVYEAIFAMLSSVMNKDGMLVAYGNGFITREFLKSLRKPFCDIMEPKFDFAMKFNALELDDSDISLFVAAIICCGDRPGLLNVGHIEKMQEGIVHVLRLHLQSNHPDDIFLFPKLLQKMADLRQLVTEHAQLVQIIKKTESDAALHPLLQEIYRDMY

Data set [4] deals with T1, Oxysterols receptor LXR-alpha.
Data set [5] concerns the target T2, Oxysterols receptor LXR-beta.
For the next data set, the species on record is Mus musculus. The following applies: in vivo.
Data set [6] in a line: in vivo. The following applies: mouse, iv, 0.5 mg/kg.
A short description of data set [7]: in vivo. Particulars: mouse, iv, 0.5 mg/kg. The source holds these as a separate data set.
Data set [8] in a line: in vivo. The following applies: mouse.
Data set [9] has as its target T4, Nuclear receptor subfamily 1 group I member 2 (Homo sapiens, UniProt O75469).
T4 sequence (O75469 whole entry): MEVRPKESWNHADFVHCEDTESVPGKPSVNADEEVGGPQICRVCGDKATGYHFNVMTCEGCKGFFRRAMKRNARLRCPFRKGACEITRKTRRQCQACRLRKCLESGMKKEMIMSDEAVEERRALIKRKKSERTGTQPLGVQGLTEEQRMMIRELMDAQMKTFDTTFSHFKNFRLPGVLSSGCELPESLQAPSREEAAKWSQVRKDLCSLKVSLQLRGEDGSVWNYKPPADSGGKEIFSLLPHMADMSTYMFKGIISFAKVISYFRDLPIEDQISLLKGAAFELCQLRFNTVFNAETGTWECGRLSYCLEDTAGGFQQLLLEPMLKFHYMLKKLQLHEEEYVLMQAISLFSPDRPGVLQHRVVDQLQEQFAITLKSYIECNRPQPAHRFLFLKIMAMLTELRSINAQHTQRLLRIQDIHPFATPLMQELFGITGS

For orientation: EC50 means the concentration giving half of the maximal effect. Lower therefore signals a more potent agent. Usually IC50 stands for the point on the concentration scale where inhibition reaches its midpoint. What is called clearance is a measure of how efficiently the substance is removed, as volume per time. A lower clearance goes with inefficient removal. As usually defined, the Vd is a proportionality between amount in the body and measured concentration, not a real space. Low readings indicate confinement near the circulation, high ones extensive tissue distribution. What is called half-life is the time needed for the level to fall by half in the phase considered.

For `CCCc1c(OCCCn2ccc3cc(CC(=O)O)ccc32)ccc2c(C(F)(F)F)noc12`, the EC50 in [1] is 590 nM; in [2] it was 450 nM. Also, the 50% inhibitory concentration (IC50) in data set [3] turned out to be 400 nM; in data set [4], 16 nM; in [5] it was 16 nM. In the data set listed under Mus musculus, this molecule yielded an AUC of 2.7 µM·kg·h/mg. This molecule also had a clearance in the data set “in vivo [6]” of 18 mL/min/kg. Besides, in “in vivo [7]”, the Vd came out at 2.7 L/kg. The molecule also had a half-life in “in vivo [8]” of 3.9 h.
Turning to `CCCc1c(OCCCN2C(=O)Cc3cc(CC(=O)O)ccc32)ccc2c(C(F)(F)F)noc12`, the EC50 in [1] worked out at 180 nM; in [2], 140 nM. Besides, the results for the IC50 in data set [4], in data set [5] and in data set [9] were 19 nM, 13 nM and over 10000 nM, respectively. For the same molecule, the AUC in the data set filed under Mus musculus amounted to 1 µM·kg·h/mg. The clearance in the data set “in vivo [6]” was 46 mL/min/kg. The Vd in the data set “in vivo [7]” is 2.9 L/kg. This molecule gave a half-life in the data set “in vivo [8]” of 1 h.

Values taken from ChEMBL document CHEMBL1148661, “SAR studies: designing potent and selective LXR agonists” (Bioorg Med Chem Lett, 2006).
